Reference: patent publication US12319967B2, “Methods and compositions for diagnosing and treating prostate cancer based on long noncoding RNA overlapping the LCK gene that regulates prostate cancer cell growth” (University of Virginia Patent Foundation, priority 2019, dated 2025)
“Also recorded” adds a separate entry of the source. Where a SMILES comes first, the peptide text is derived from it. The star is where a group is joined. Cbz = O=C(OCc1ccccc1)*

Tests used:
Type in all cases: cell-based, human
HULLK = experiment: qPCR of HULLK (LCK 3'UTR / exon 13) transcript levels in response to hormone and AR, p300 or Brd4 inhibition
Experimental: (§1) FIGS. 2A through 2E illustrate that HULLK is an AR-regulated lncRNA. […] LNCaP and C42 cells were transduced with two independent shRNAs to LCK and treated with 0-1 nM R1881. RNA was collected on Day 4 and LCK transcript levels were determined using LCK primers targeting the 3′UTR. […] LNCaP and C42 cells were seeded for 48 hrs, and then, treated with 1 nM R1881 in the presence or absence of 10 μM enzalutamide. RNA was collected 24 hrs after treatment and LCK transcript levels were determined by qPCR using LCK primers targeting the 3′UTR. C4-2, DU145, and PC3 cells were seeded in CSS media for 48 hrs, and then, treated with 1 nM R1881 for 16 hrs. RNA was collected and LCK transcript levels were determined using LCK primers targeting the 3′UTR. […] FIG. 2E illustrates that Brd4 inhibition reduces the hormone induction of HULLK, n=3. LNCaP, C42, or Jurkat cells were seeded for 48 hrs in the appropriate growth media, and then, treated with 1 nM R1881 in the presence or absence of 0.3 μM A-485 or 0.1 μM JQ1. RNA was collected 24 hrs after treatment and LCK transcript levels were determined by qPCR using LCK primers targeting exon 13 or 3′UTR. PSA and TMPRSS2 transcripts were determined to verify the efficacy of p300 and Brd4 inhibition.
FIGS. 7A and 7B illustrate the regulation of HULLK by the AR in breast cancer cells. […] LNCaP, MCF7, BT549, and MDA-MD-231 cells were seeded in the appropriate growth media, and whole cell lysates were collected 48 hrs later and blotted for AR21 and ERK1/2. […] MCF7, BT549, and MDA-MB-231 cells were seeded in CSS media for 48 hrs, and then, treated with 1 nM R1881 for 16 hrs. RNA was collected and LCK transcript levels were determined using LCK primers targeting the 3′UTR, n=3.
Cell Culture and Reagents. LNCaP and C4-2 cells (a gift from Dr. L. W. K. Chung) were grown in DMEM:F12 (Invitrogen) with 5% Non-Heat-Inactivated serum (Gemini) and 1% Insulin-Transferrin-Selenium-Ethanolamine (ThermoFisher). CWR22Rv1 (Rv1), VCaP, PC3 (gifts from Drs. Steven Balk, Karen Knudsen, and Chung, respectively), WMPY-1 (ATCC), MCF7, BT549 and MDA-MB-231 (gifts from Dr. Amy Bouton) were grown in DMEM (Invitrogen) with 10% Heat-Inactivated serum. DU145 (a gift from Dr. Chung), PANC1 (a gift from Dr. J. Thomas Parsons), HeLa and Jurkat cells (gifts from Dr. Tim Bender) were grown in RPMI-1640 (Invitrogen) with 10% Heat-Inactivated serum. LHS cells (a gift from Dr. William Hahn) were grown in ProstaLife Epithelial Cell Medium (Lifeline). RWPE-1 (ATCC) cells were grown in Keratinocyte-Serum-Free Media (Invitrogen). For growth and RNA experiments, phenol-red free DMEM:F12 media with 5% Charcoal-Stripped Serum (CSS) (Gemini) was used.
RNA Isolation, qPCR and ddPCR: RNA was collected using TRIzol and quantitated using a NanoDrop 2000 UV-Vis Spectrophotometer (ThermoFisher). cDNA was synthesized using Superscript IV VILO cDNA synthesis kit (Invitrogen). Quantitative real-time PCR (qPCR) was performed as previously described (17,18). Droplet digital PCR (ddPCR) was executed according to the manufacturer's protocol (Bio-Rad).
To assess whether this lncRNA is modulated by hormone, transcript levels of this lncRNA were quantified by qPCR using 3′UTR primers in LNCaP and C4-2 cells transduced in the presence of increasing concentrations of R1881 (FIG. 2A). […] This increase was inhibited in the presence of two independent LCK shRNAs in both cell lines.
This hormone regulation was confirmed by measuring transcript amounts in LNCaP and C4-2 cells treated with vehicle or R1881 in the presence or absence of the anti-androgen enzalutamide (FIG. 2B). As expected, there was an 8-fold and 12-fold R1881-induced increase in LCK 3′UTR transcript levels in LNCaP and C4-2 cells, respectively. […] Androgen deprivation influenced message levels negligibly in LNCaP cells, but decreased transcript amounts of this lncRNA by approximately 2.9-fold in C4-2 cells (FIG. 2B, C4-2 vehicle vs. media). […]

[1] = test system: PSA and TMPRSS2 transcripts; experiment: qPCR of PSA and TMPRSS2 transcripts to verify efficacy of p300 inhibition; settings: 0.3 μM A-485 + 1 nM R1881
Experimental: as §1, with “inhibition. […]” for “inhibition.”

p53 = experiment: Western blot after proteasome inhibition with MG132; settings: LNCaP cells; 10 μM MG132
Experimental: (§2) FIGS. 1A to 1D illustrate the discovery of a novel lncRNA in prostate cancer cells. […] LCK protein was immunoprecipitated from 1 mg cell lysate from LNCaP, C4-2, and Jurkat cells cultured in the appropriate growth media for 48 hrs and treated with 1 nM R1881 or starved of hormone for 24 hrs, separated by 10% SDS-PAGE, and immunoblotted with LCK antibodies targeting the amino- and carboxy-terminals. Representative blots are shown, n=3. […] LNCaP cells were seeded and treated with 10 μM MG132 in the presence or absence of R1881 for the indicated timepoints. Cell lysates were blotted for LCK (c-terminal), LCK (n-terminal), p53, ERK1/2, Ran, and Histone H3. Representative blots are shown, n=3. Representative gel is shown, n=3. LNCaP cells were grown in the absence or presence of 1 nM R1881 for 24 hrs. RNA was collected using the Qiagen RNeasy kit. […]
(§3) To determine whether the lack of LCK expression was due to proteasomal degradation, LCK protein levels were examined in the presence of the proteasome inhibitor MG132 (FIG. 18). […] Furthermore, no truncated forms of LCK were detected when the whole western blot membrane was probed from 75 kD to 10 kD with either c- or n-terminal LCK antibodies. […] Therefore, a ncRNA may play a role in the growth effects measured in the kinome screen.

LCK protein = experiment: Western blot for LCK protein after proteasome inhibition with MG132; settings: LNCaP cells treated with FBS, CSS, or 1 nM R1881; 10 μM MG132; any timepoint
Experimental: as §2, §3

[2] = test system: LNCaP, C4-2, and Rv1 cells; experiment: CyQuant growth assay 7 days after viral transduction; settings: day 7; for effect on cell growth: absence of hormone, Rv1 cells
Text: FIG. 5A illustrates the gene structure of LCK and location of each shRNA targeting LCK. MISSION shRNAs targeting human LCK (NM_005356) and the pLKO vector control were purchased from ThermoFisher. Each shRNA was validated for efficiency of LCK or HULLK knockdown in Jurkat and PCa cells by qPCR. (C) The results of CyQuant Assay measuring DNA content as a surrogate for cell number 7 days after shRNA transduction is shown in FIG. 5C. Growth was compared to untreated empty vector control and the values were averaged across biological replicates. Error bars represent standard error of the mean. The relative effect of four independent shRNAs on cell growth in LNCaP, C42, and Rv1 cells in the absence or presence of 0.05 nM R1881, n=3. FIG. 5D plots the data for the relative effect of HULLK overexpression on cell growth in LNCaP, C42, and Rv1 cells in the absence or presence of 0.05 nM R1881, n=3. Statistical analysis was performed using ANOVA and Tukey test.
CyQuant Growth Assays: Assay was performed as previously described (18). Briefly, shRNA or pLKO control virus was added to 1 μg/ml fibronectin-coated 96 well plates. Cells were plated in RPMI-1640 plus 5% CSS with vehicle, 0-0.05 nM R1881, and/or 10 μM Enzalutamide (Selleck Chemicals). Quantification was performed on Day 7 using a BioTek Synergy 2 plate reader.
To explore the functional role of HULLK in PCa, the effects of HULLK knockdown on PCa cell growth was examined. LNCaP, C4-2, and Rv1 cells were transduced with lentiviral particles expressing four independent shRNAs specific for LCK or pLKO empty vector control in the presence or absence of 0.05 nM R1881. Two shRNAs were targeting the carboxy-terminal of LCK (shLCK-3 and shLCK-4) and should decrease HULLK levels; and two shRNAs were directed toward the amino-terminal (shLCK-1 and shLCK-2) and should not affect HULLK expression (FIG. 5A). […] As a control, all four shRNAs efficiently knocked LCK down 60-90% in Jurkat cells. Seven days following viral transduction, cellular growth was measured using CyQuant, which uses DNA content as a surrogate for cell number. In the absence of hormone, the four shRNAs had no dramatic effects on growth in LNCaP or C4-2 cells (FIG. 5C).
The complement experiment of evaluating the effects of overexpressing HULLK on cell growth was also performed. LNCaP, C4-2, and Rv1 cells were transduced with lentivirus expressing either vector or HULLK constructs in the presence or absence of 0.05 nM R1881, and proliferation was calculated seven days following viral transduction.

AR = AR protein and message levels 48 hrs after HULLK knockdown or overexpression; settings: LNCaP and C4-2 cells; 48 hrs after transduction
Experimental: LNCaP and C4-2 cells were transduced with vector, shLCK (n-term), or shLCK (c-term) in the appropriate growth media, and whole cell lysates were collected 48 hrs later and blotted for AR21 and ERK1/2, n=3. […] LNCaP and C4-2 cells were transduced with vector or HULLK in the appropriate growth media, and whole cell lysates were collected 48 hrs later and blotted for AR21 and α-tubulin, n=3. RNA was collected and AR transcript levels were determined using AR primers targeting the DNA binding domain, n=3.
Conversely, studies were conducted to determine whether HULLK modulates AR expression. LNCaP and C4-2 cells were transduced with vector, HULLK, or shRNAs targeting LCK (n-term) (FL-LCK) or LCK (c-term) (HULLK), and AR protein and message levels were examined 48 hrs after transduction.

With `CNC(=O)Nc1ccc2c(c1)CC[C@@]21OC(=O)N(CC(=O)N(Cc2ccc(F)cc2)[C@@H](C)C(F)(F)F)C1=O` [A-485] the “effect on hormone-induced increase in HULLK transcript levels” value (HULLK; 0.3 μM A-485 + 1 nM R1881, 24 hrs) was “significantly opposed the hormone-induced increase”, the “effect on HULLK expression, inhibitor alone” value (HULLK; 0.3 μM A-485 without R1881, LNCaP, C4-2, Jurkat cells) was “negligible effects” and the “PSA and TMPRSS2 message in the presence of hormone and p300 inhibitor” value [1] was “sufficiently blocking its target”.

With `CNC(=O)c1ccc(N2C(=S)N(c3ccc(C#N)c(C(F)(F)F)c3)C(=O)C2(C)C)cc1F` [Enzalutamide] the “effect on hormone-mediated increase in LCK 3'UTR transcript (HULLK)” value (HULLK; LNCaP and C4-2 cells, 1 nM R1881 + 10 μM enzalutamide, 24 hrs) was “blocked the hormone-mediated increase; also recorded: blocks the androgen-induced expression of HULLK”.

For `Cc1sc2c(c1C)C(c1ccc(Cl)cc1)=N[C@@H](CC(=O)OC(C)(C)C)c1nnc(C)n1-2` [JQ1], the “HULLK expression in the presence of hormone and JQ1 compared to hormone alone” value (HULLK; 0.1 μM JQ1 + 1 nM R1881, 24 hrs) was “significantly decreased”.

With `CC(C)C[C@@H](C=O)NC(=O)[C@H](CC(C)C)NC(=O)[C@H](CC(C)C)NC(=O)OCc1ccccc1` [MG132] (Cbz-Leu-Leu-Leu-aldehyde) the p53 protein level (p53) was “elevated” and the LCK protein detection (LCK protein) was “still not observed”.

“HULLK: Hormone Upregulated lncRNA within LCK, overexpressed from lentiviral expression vector PLX301” was tested, and the “proliferation of HULLK-overexpressing cells compared to vector control cells” value ([2]; 0.05 nM R1881, LNCaP, C4-2, and Rv1 cells) was “significantly increased proliferation”, the “growth of HULLK-overexpressing cells versus vector-expressing cells” value ([2]; androgen-deprived media, LNCaP, C4-2, and Rv1 cells) was “did not provide a growth advantage” and the “AR expression after overexpression of HULLK” value (AR) was “not notably altered”.

With “shLCK-3: shRNA targeting the carboxy-terminal of LCK (HULLK), nucleotide sequence SEQ ID NO: 25 (CCGGGGGATCCTGCTGACGGAAATTCTCGAGAATTTCCGTCAGCAGGATCCCTTTTTG)” the “effect on cell growth” value [2] was “statistically significant decrease”.

For “shLCK-4: shRNA targeting the carboxy-terminal of LCK (HULLK), nucleotide sequence SEQ ID NO: 26 (CCGGTCACATGGCCTATGCACATATCTCGAGATATGTGCATAGGCCATGTGATTTTTG)”, the “effect on cell growth” value [2] was “statistically significant decrease”.
